Test results from patent US5958966A, “Treatment of aberrant cellular states with biomodulators” (University of New Mexico, priority 1995, dated 1999).
Entries after “also recorded” stand apart in the source; their conditions may differ.

Experiments:
B16 melanoma cells = assay: effect of swainsonine on B16 melanoma solid tumor growth; assay type: in vivo, mouse; conditions: for inhibition of B16 growth: 1.0, 0.01 and 0.001 μg Sw (p<0.5)
Description: The B16 melanoma cells were purchased from American Type Culture Collection (ATCC). They were maintained in complete A-MEM (SIGMA) (with 10% fetal calf serum (FCS) (Sigma), 100 U/ml penicillin (Sigma), 100 μg/ml streptomycin (Sigma) and 2 mM utamine (Sigma)) in Corning 75 cm^2 straight necked flasks (T75) and grown with 5.5% CO2 in air with 95% humidity in a New Brunswick Scientific water jacketed incubator. […] They were harvested using 1× Trypsin-EDTA (Sigma), centrifuged at 100×g with a Beckman TJ6 centrifuge, counted using a hemocytometer and stained with trypan blue to determine viability. The cells used for injection into the mice were washed three times in phosphate buffered saline (PBS), counted and resuspended in PBS at a final concentration of 6×10^6 cells per ml.
The swainsonine, purchased from Boehringer Mannheim, was initially suspended in PBS at 100 μg/ml. Subsequent dilutions utilized in the following experiments were made in PBS.
Fifteen female C57B1/6 mice (6 weeks old, from Harlan Sprague Dawley Laboratories) were treated 3 times per week on a Monday-Wednesday-Friday (MWF) schedule for three weeks prior to the injection of the 6×10^5 B16 melanoma cells. The treatment consisted of 0.1 ml (total volume) intraperitoneal injections of swainsonine in the mornings before 9:00 am. The treatment groups were as follows:
The MWF treatment with the swainsonine continued after the tumor cell injection until the termination of the study. Once the tumor was palpable, electronic calipers were used to measure the length (l), width (w) and depth (d) of the tumor. The volume of the tumor was then determined by V=πr^2 ×d, with the assumption that the tumor is a […], then r=(l+w)/4.
The effect of swainsonine on the growth of B16 melanoma solid tumors in vivo was investigated by pretreating the mice for 3 weeks and then injecting melanoma cells into the right shoulder area. Palpable tumors in the control group (0.0 μg Sw) were present on day 5 post tumor cell injection. These tumors were the size of a grain of rice and could not be accurately measured. FIG. 66 graphically presents tumor growth rate versus time. Tumors whose size could be reliably measured were present on day 7 in the controls (Table I). […] This was a delay of two day in both instances. The 0.1 μg Sw slowed growth of the melanoma tumor. The tumors in the 0.1 μg Sw group were 74% (p=0.03) smaller in size on day 9 compared to the controls and 68% (p=0.003) smaller on day 11.

[1] = tested on: plaque forming cells (splenocytes); assay: effect of swainsonine on humoral immunity (PFC assay); assay type: in vivo, mouse; conditions: for PFC versus control in words: listed as Sw
Description: The plaque forming cell (PFC) assay was done according to the method developed by Jerne and Nordin (1963). The splenocytes were washed in serum-free RPMI-1640 and brought to a final concentration of 1×10^6 cell/100 μl. Sheep red blood cells (sRBC), from The Colorado Serum Company, were labelled with protein A from Staphylococcus aureus (Sigma). The sRBC's were washed 3 times with saline (0.85% NaCl), the packed cells were then incubated with 1 ml of protein A (0.5 mg/ml saline) and 10 ml of saline containing 0.1 μl of CrCl3 (35% solution) (Aldrich), for 20 minutes. The sRBC's were then washed 3 times with PBS and suspended in PBS to make a 30% solution. The sRBC's (50 μl) and splenocytes (100 μl) were combined with SeaPlaque agarose (FMC Corporation) and smeared on a 75 mm×50 mm microscope slide to form a lawn of target red blood cells with uniformly dispersed effector cells. Each sample was done in triplicate. The agarose was allowed to harden and the slides were placed in trays containing serum-free RPMI-1640. The trays were incubated at 37° C. in a CO2 incubator for 90 min. After incubation the slides were placed in slide holders containing normal saline for a wash step. The rabbit/anti-mouse antibody (DAKO Corporation) was diluted 1:400 with serum free RPMI-1640 and added to the slide trays. Following another 90 min. incubation at 37° C. in a CO2 incubator, the slides were again washed. Fresh frozen guinea pig complement (GIBCO) (2%) in serum-free RPMI-1640 was added to the slide trays and incubated for another 60 to 90 min. depending on the time necessary for plaque formation. The number of plaques were counted and the results reported as number of plaque forming cells per 1×10^6 splenocytes.
Mice were pretreated for 3 weeks with Sw (0.1 μg and 0.01 μg), and then received B16 cells. At 3 time points post tumor cell injection (day 0, 7 and 14), the mice were sacrificed and the spleens were removed. The cells were then used to determine the effect of Sw on humoral immunity. […] The presence of a day 7 tumor caused a return to baseline for all the groups. A significant difference (p=0.001) was seen on day 14 post tumor injection with the mice treated with 0.01 μg Sw.

α-mannosidase II = conditions: cited from earlier work

SMILES: O[C@H]1[C@H]2[C@H](O)CCCN2C[C@H]1O [Swainsonine, swainsonine]
- delay of onset of tumor growth (B16 melanoma cells; 0.1 μg Sw): two
- tumor size reduction versus control (B16 melanoma cells; 0.1 μg Sw, day 9, p=0.03): 74%
- tumor size reduction versus control (B16 melanoma cells; 0.1 μg Sw, day 11, p=0.003): 68%
- first day of palpable tumors (B16 melanoma cells; 0.1 μg Sw, control day 5): 7 days
- first day of measurable tumors (B16 melanoma cells; 0.1 μg Sw, control day 7): 9 days
- effect on growth (B16 melanoma cells; 1.0 μg Sw): causes enhanced growth
- inhibition of B16 growth (B16 melanoma cells): no effect on delaying growth
- inhibition of B16 growth (B16 melanoma cells; listed as Sw): less effective at inhibiting the B16 growth
- increase in plaque forming cells ([1]; 0.01 μg Sw, before tumor, p=0.001): 89%
- increase in PFC over mice without Sw with day 14 tumors ([1]; 0.01 μg Sw, day 14): 108%
- increase in PFC over mice without tumors or treatment ([1]; 0.01 μg Sw, day 14): 144%
- PFC versus control in words ([1]; 0.1 μg Sw without tumor (p=0.04)): not as significantly different from the control group; also recorded: significant changes in the formation of plaques prior to tumor exposure
- PFC versus control in words ([1]; 0.1 μg Sw, day 14 (p=0.13)): not a significant difference between the controls and these treated mice; also recorded: even higher levels
- inhibition of α-mannosidase II / anticancer effects (α-mannosidase II): known to have anticancer effects possibly mediated through its inhibition of α-mannosidase II
